Measured values: PubChem BioAssay AID2060912 (Molecular Pharmacology Branch, DTP, NCI, 2025)

Test system: HUVEC/MSC spheroids viability
Test: Human HUVEC/MSC cell line growth inhibition [KRAS2];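 as to viability, T/C: percent of DMSO vehicle control luminescence so 100% = untreated viability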
Conditions: for IC50: curve of first compound; for viability, T/C: stronger effect = lower value
Text: Multicellular complex tumor spheroid response to RAS pathway inhibitors in combination with a targeted agents in patient-derived cell lines with oncogenic KRAS variants from multiple cancer types
A high-throughput screen of multi-cell type tumor spheroids was designed to identify active combinations of targeted small molecules and KRAS pathway inhibitors. Complex spheroids include a stromal component modeled by human endothelial cells (HUVEC) and fibroblasts modeled by human mesenchymal stem cells (MSCs). The concentration ranges selected for each drug and investigational agent were based upon clinically achievable concentrations if the clinical Cmax of the agent was known. * [This particular assayID is a followup dataset requested by reviewers of the manuscript. It is a test of the HUVEC and MSC without the tumor cells, and was conducted using different drug plates and a different plate layout.]
Compounds. The drugs and investigational agents: BI-3406 (NSC825286), BAY-293 (NSC824723), batoprotafib (TNO155; NSC825523), sotorasib (AMG 510; NSC818433), MRTX1257 (NSC819558), elimusertib (BAY 1895344; NSC800525), molibresib (GSK525762; NSC774829), temuterkib (LY3214996; NSC803410), venetoclax (NSC766270), alisertib (NSC759677), olaparib (NSC753686), talazoparib (NSC767125), erdafitinib (NSC781556), ipatasertib (NSC767898), cabozantinib (NSC761068), nintedanib (NSC756659), abemaciclib (NSC768073), docetaxel (NSC628503), trametinib (NSC758246), and sapanisertib (NSC764658) were obtained from the National Cancer Institute (NCI) Developmental Therapeutics Program Chemical Repository. The FDA-approved anticancer drug set is available from the Developmental Therapeutics Program. […] The stock solutions were prepared in dimethyl sulfoxide (DMSO, Sigma-Aldrich, St. Louis, MO, cat. D2650) at 800-fold the tested concentration and stored at -70 degrees C prior to their use. All drugs and investigational agents were tested over a range starting from a high concentration at or near the clinical Cmax and decreasing in half-log increments. If the clinical Cmax for an agent had not been determined, the highest concentration tested was 10 microM.
Cell Culture. All cells were maintained in an incubator at 37 degrees C and 5% CO2 with 95% humidity. The PDC lines were cultured according to standard operating procedures established by the NCI PDMR (https://pdmr.cancer.gov/sops/default.htm). Briefly, all PDCs were thawed and cultured in Matrigel-coated flasks prepared with a working solution of 1X Ham's F-12 nutrient mix, without supplementation (Invitrogen, Waltham, MA, cat. 11765054), 100 U/mL penicillin-streptomycin (Invitrogen, cat. 15140122), and 2.5% Matrigel (Corning Inc., Corning, NY, cat. 354248) for the first three passages. All PDCs were cultured in complete DMEM/F-12 media containing advanced DMEM/F-12 (Invitrogen, cat. 12634028), 4.9% defined fetal bovine serum, heat inactivated (HyClone Laboratories Inc., Logan, UT, cat. SH30070.03HI), 389 ng/mL hydrocortisone (Sigma-Aldrich, cat. H4001), 9.7 ng/mL human EGF recombinant protein (Invitrogen, cat. PHG0313), 23.4 microg/mL adenine (Sigma-Aldrich, cat. A2786), 97.3 U/mL penicillin-streptomycin (Invitrogen, cat. 15140122), 1.9 mM L-glutamine (Invitrogen, cat. 25030081), and 9.7 microM Y-27632 dihydrochloride (Tocris Bioscience, Bristol, United Kingdom, cat. 1254). The PDCs were cultured in complete DMEM/F12 media without 9.7 microM Y-27632 dihydrochloride for at least two passages prior to the screen. The established cell line HOP-62 was cultured in RPMI 1640 medium, HEPES (Invitrogen, cat. 22400105) with 10% defined fetal bovine serum (HyClone Laboratories Inc., cat. SH30070.03) and 2 mM L-glutamine (Invitrogen, cat. 25030081). The pooled donor HUVEC were cultured in endothelial cell growth medium 2 (PromoCell, Heidelberg, Germany, cat. C-22011) and the hMSC were cultured in mesenchymal stem cell growth medium 2 (PromoCell, cat. C-28009). […]

[1] = second compound 0.0316 µM, first compound 0.0316 µM
[2] = second compound 0.0316 µM, first compound 0.1 µM
[3] = second compound 0.1 µM, first compound 0.0316 µM
[4] = second compound 0.1 µM, first compound 0.1 µM
[5] = second compound 0.316 µM, first compound 0.0316 µM
[6] = second compound 0.316 µM, first compound 0.1 µM
[7] = second compound 1 µM, first compound 0.0316 µM
[8] = second compound 1 µM, first compound 0.1 µM
[9] = second compound 3.16 µM, first compound 0.0316 µM
[10] = second compound 3.16 µM, first compound 0.1 µM
[11] = second compound 10 µM, first compound 0.0316 µM
[12] = second compound 10 µM, first compound 0.1 µM

For `CCNC(=O)CC1N=C(c2ccc(Cl)cc2)c2cc(OC)ccc2-n2c(C)nnc21` (centres undefined) + CNCc1ccccc1-c1csc(C(C)Nc2nc(C)nc3cc(OC)c(OC)cc23)c1, the IC50 (second compound 0.0316 µM) was greater than 10000 nM, the IC50 (second compound 0.1 µM) was greater than 10000 nM and the IC50 (second compound 0.316 µM) was greater than 10000 nM. The IC50 (second compound 1 µM) was greater than 10000 nM, the IC50 (second compound 3.16 µM) was greater than 10000 nM and the IC50 (second compound 10 µM) was less than 31.6 nM. For the same compound, the viability, T/C [1] was 89.8%, the viability, T/C [2] was 96.4% and the viability, T/C (second compound 0.0316 µM, first compound 0.316 µM) was 88%. For the same compound, the viability, T/C (second compound 0.0316 µM, first compound 1 µM) was 106%, the viability, T/C (second compound 0.0316 µM, first compound 3.16 µM) was 114% and the viability, T/C (second compound 0.0316 µM, first compound 10 µM) was 115%. The viability, T/C [3] was 96.8%, the viability, T/C [4] was 91.3% and the viability, T/C (second compound 0.1 µM, first compound 0.316 µM) was 109%. For the same compound, the viability, T/C (second compound 0.1 µM, first compound 1 µM) was 92.6%, the viability, T/C (second compound 0.1 µM, first compound 3.16 µM) was 120% and the viability, T/C (second compound 0.1 µM, first compound 10 µM) was 122%. The viability, T/C [5] was 75.2%, the viability, T/C [6] was 86.6% and the viability, T/C (second compound 0.316 µM, first compound 0.316 µM) was 91.3%. For the same compound, the viability, T/C (second compound 0.316 µM, first compound 1 µM) was 109%, the viability, T/C (second compound 0.316 µM, first compound 3.16 µM) was 94.1% and the viability, T/C (second compound 0.316 µM, first compound 10 µM) was 93.7%. It also gave a viability, T/C [7] of 69.5%, a viability, T/C [8] of 105% and a viability, T/C (second compound 1 µM, first compound 0.316 µM) of 98.5%. For the same compound, the viability, T/C (second compound 1 µM, first compound 1 µM) was 99.4%, the viability, T/C (second compound 1 µM, first compound 3.16 µM) was 127% and the viability, T/C (second compound 1 µM, first compound 10 µM) was 99.1%. The viability, T/C [9] was 86.8%, the viability, T/C [10] was 93.6% and the viability, T/C (second compound 3.16 µM, first compound 0.316 µM) was 117%. The viability, T/C (second compound 3.16 µM, first compound 1 µM) was 97.3%, the viability, T/C (second compound 3.16 µM, first compound 3.16 µM) was 108% and the viability, T/C (second compound 3.16 µM, first compound 10 µM) was 114%. It also gave a viability, T/C [11] of 0.39%, a viability, T/C [12] of 0.34% and a viability, T/C (second compound 10 µM, first compound 0.316 µM) of 0.4%. For the same compound, the viability, T/C (second compound 10 µM, first compound 1 µM) was 0.52%, the viability, T/C (second compound 10 µM, first compound 3.16 µM) was 0.39% and the viability, T/C (second compound 10 µM, first compound 10 µM) was 0.43%.
Compound `CC(C)n1nc(-c2ccc3oc(N)nc3c2)c2c(N)ncnc21` + COc1cc2nc(C)nc(NC(C)c3cc(N)cc(C(F)(F)F)c3)c2cc1OC1CCOC1 has an IC50 (second compound 0.0316 µM) of 3.01 nM, an IC50 (second compound 0.1 µM) of 6.81 nM and an IC50 (second compound 0.316 µM) of 2.94 nM. For the same compound, the IC50 (second compound 1 µM) was 2.8 nM, the IC50 (second compound 3.16 µM) was 2.49 nM and the IC50 (second compound 10 µM) was 5.16 nM. It also gave a viability, T/C (second compound 0.0316 µM, first compound 0.000316 µM) of 78.9%, a viability, T/C (second compound 0.0316 µM, first compound 0.001 µM) of 80.2% and a viability, T/C (second compound 0.0316 µM, first compound 0.00316 µM) of 48.5%. It also gave a viability, T/C (second compound 0.0316 µM, first compound 0.01 µM) of 53%, a viability, T/C [1] of 49.2% and a viability, T/C [2] of 44%. It also gave a viability, T/C (second compound 0.1 µM, first compound 0.000316 µM) of 82.9%, a viability, T/C (second compound 0.1 µM, first compound 0.001 µM) of 61.5% and a viability, T/C (second compound 0.1 µM, first compound 0.00316 µM) of 55.5%. For the same compound, the viability, T/C (second compound 0.1 µM, first compound 0.01 µM) was 46.5%, the viability, T/C [3] was 50.5% and the viability, T/C [4] was 39.6%. For the same compound, the viability, T/C (second compound 0.316 µM, first compound 0.000316 µM) was 79.8%, the viability, T/C (second compound 0.316 µM, first compound 0.001 µM) was 76.2% and the viability, T/C (second compound 0.316 µM, first compound 0.00316 µM) was 48.2%. It also gave a viability, T/C (second compound 0.316 µM, first compound 0.01 µM) of 41.1%, a viability, T/C [5] of 46.1% and a viability, T/C [6] of 39%. For the same compound, the viability, T/C (second compound 1 µM, first compound 0.000316 µM) was 76%, the viability, T/C (second compound 1 µM, first compound 0.001 µM) was 67.2% and the viability, T/C (second compound 1 µM, first compound 0.00316 µM) was 49.3%. The viability, T/C (second compound 1 µM, first compound 0.01 µM) was 34.5%, the viability, T/C [7] was 51% and the viability, T/C [8] was 37.7%. It also gave a viability, T/C (second compound 3.16 µM, first compound 0.000316 µM) of 77%, a viability, T/C (second compound 3.16 µM, first compound 0.001 µM) of 71.8% and a viability, T/C (second compound 3.16 µM, first compound 0.00316 µM) of 44.2%. For the same compound, the viability, T/C (second compound 3.16 µM, first compound 0.01 µM) was 41.7%, the viability, T/C [9] was 41.8% and the viability, T/C [10] was 43.1%. The viability, T/C (second compound 10 µM, first compound 0.000316 µM) was 62.7%, the viability, T/C (second compound 10 µM, first compound 0.001 µM) was 61% and the viability, T/C (second compound 10 µM, first compound 0.00316 µM) was 59.3%. It also gave a viability, T/C (second compound 10 µM, first compound 0.01 µM) of 33.7%, a viability, T/C [11] of 41.2% and a viability, T/C [12] of 37.4%.
